Assay results reported in ChEMBL document CHEMBL1156621, “Synthesis and cellular effects of cycloterpenals: cyclohexadienal-based activators of neurite outgrowth” (2008).

What was measured:
Type in all cases: functional
Saccharomyces cerevisiae = experiment: Antifungal activity against Saccharomyces cerevisiae after 16 hrs
Bacillus subtilis = experiment: Antibacterial activity against Bacillus subtilis after 16 hrs
Escherichia coli = experiment: Antibacterial activity against Escherichia coli after 16 hrs

Measured: MIC

CN(C)c1ccc(C2CC(c3ccccc3)=CC=C2C=O)cc1 (centres undefined)
> 100 µg/mL: all assays above

CC1=C(/C=C/C2=CC=C(C=O)C(C)C2)C(C)(C)CCC1 (centres undefined)
> 100 µg/mL: all assays above

CC1=C(/C=C/C(C)=C/C=C/c2ccc(C=O)c(-c3ccccc3)c2)C(C)(C)CCC1
> 100 µg/mL: all assays above

CC(C)=CCCC1=CC=C(C=O)C(c2ccc(N(C)C)cc2)C1 (centres undefined)
> 100 µg/mL: all assays above

CC1CC(c2ccc(-c3ccccc3)cc2)=CC=C1C=O (centres undefined)
> 100 µg/mL: all assays above

CC1CC(c2ccc3c(c2)Cc2ccccc2-3)=CC=C1C=O (centres undefined)
> 100 µg/mL: all assays above

CCCCCCC1=CC=C(C=O)C(C)(CCCCCC)C1 (centres undefined)
> 100 µg/mL: all assays above

Cc1ccc(C=O)c(-c2ccccc2)c1
> 100 µg/mL: all assays above

O=CC1=CC=C(c2ccc(-c3ccccc3)cc2)CC1c1ccccc1 (centres undefined)
> 100 µg/mL: all assays above

CC1C(c2cccs2)=CC=C(C=O)C1c1ccccc1 (centres undefined)
> 100 µg/mL: all assays above

CC(C)=CCCC1=CC=C(C=O)C(C)(c2ccc(C)o2)C1 (centres undefined)
> 100 µg/mL: all assays above

CCC1(c2cccs2)C(C=O)=CC=C(c2cccs2)C1C (centres undefined)
> 100 µg/mL: all assays above

CC(C)=CC[C@@H]1C(C)=CC=C(C=O)[C@H]1c1ccccc1
> 100 µg/mL: all assays above

O=CC1=CC=C(c2ccc3c(c2)Cc2ccccc2-3)CC1c1ccccc1 (centres undefined)
> 100 µg/mL: all assays above

Cc1ccc(C2=CC=C(C=O)C(c3ccccc3)C2)o1 (centres undefined)
> 100 µg/mL: all assays above

CC1=C(/C=C/C2=CC=C(C=O)C(C)(/C=C/C3=C(C)CCCC3(C)C)C2)C(C)(C)CCC1 (centres undefined)
> 100 µg/mL: all assays above

O=CC1=CC=C(c2ccc3ccccc3c2)CC1c1ccc([N+](=O)[O-])cc1 (centres undefined)
> 100 µg/mL: all assays above

CCCCC[C@H]1C(C)=CC=C(C=O)[C@H]1c1ccc(N(C)C)cc1
> 100 µg/mL: all assays above

Cc1ccc(-c2ccc(C=O)c(-c3ccc([N+](=O)[O-])cc3)c2)o1
> 100 µg/mL: all assays above

CC(C)=CC[C@@H]1C(C)=CC=C(C=O)[C@H]1c1ccc(N(C)C)cc1
> 100 µg/mL: all assays above

CN(C)c1ccc(-c2cc(-c3ccc4c(c3)Cc3ccccc3-4)ccc2C=O)cc1
> 100 µg/mL: all assays above

CC(C)=CCCC1=CC=C(C=O)C(c2ccccc2)C1 (centres undefined)
> 100 µg/mL: all assays above

CC1(c2ccc3c(c2)Cc2ccccc2-3)CC(c2ccc3c(c2)Cc2ccccc2-3)=CC=C1C=O (centres undefined)
> 100 µg/mL: all assays above
